# Data reported in patent US20080051418A1, “Arylalkanoic Acid Derivative” (priority 2004, published 2008).
# Structures can show the parent of a compound that is named as a salt. Where two headings read alike, the source gives them in different places.
# Tests used:
# KKA^y mice = assay: Blood glucose and blood lipid (triglyceride) lowering action in mice; assay type: in vivo; details: Mus musculus, po, 96 h, 0.005% in powder diet, 4 days, non-administration group = 100%
# Text: The test compound was mixed with a powder diet (CE-2, CLEA JAPAN, INC.) at a proportion of 0.005% (0.01% for the compound of Example 105) and freely given to KKA^y mice (9 to 12-week-old, 5 mice per group) which are obesity-insulin independent diabetes mellitus (type-2 diabetes) models, for 4 days. During this period, water was freely given. The blood was drawn from the orbital venous plexus. Glucose and triglyceride in the plasma separated from the blood were quantitated using L Type Wako Glu2 (Wako Pure Chemical Industries, Ltd.) and L Type Wako TG•H (Wako Pure Chemical Industries, Ltd.), respectively, according to an enzyme method.
# PPARγ-RXRα heterodimer = molecular target: T1, PPARγ-RXRα heterodimer (Homo sapiens, UniProt P37231); assay: PPARγ-RXRα heterodimer ligand activity (luciferase reporter); assay type: cell-based; details: PPARγ:RXRα:4ERPP/CHO-K1 cells, 18-24 hr, concentration showing 50% of the maximum induction rate
# T1 construct: expressed in transfected cells; host or cells: CHO-K1
# T1 sequence (P37231 1-505): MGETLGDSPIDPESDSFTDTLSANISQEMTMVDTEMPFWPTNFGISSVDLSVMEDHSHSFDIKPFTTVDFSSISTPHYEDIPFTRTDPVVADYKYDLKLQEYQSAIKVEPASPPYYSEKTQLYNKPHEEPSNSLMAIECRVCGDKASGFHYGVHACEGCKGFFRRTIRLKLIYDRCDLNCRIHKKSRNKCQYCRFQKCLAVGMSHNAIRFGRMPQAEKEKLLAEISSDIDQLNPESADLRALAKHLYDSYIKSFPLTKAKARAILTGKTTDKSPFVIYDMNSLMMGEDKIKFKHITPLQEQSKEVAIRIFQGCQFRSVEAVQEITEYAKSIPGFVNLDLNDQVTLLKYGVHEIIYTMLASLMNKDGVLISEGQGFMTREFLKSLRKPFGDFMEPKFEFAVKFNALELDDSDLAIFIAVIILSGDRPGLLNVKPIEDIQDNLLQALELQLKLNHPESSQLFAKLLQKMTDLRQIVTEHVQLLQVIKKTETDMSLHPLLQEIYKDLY
# T1 sequence (P19793 1-462 partner): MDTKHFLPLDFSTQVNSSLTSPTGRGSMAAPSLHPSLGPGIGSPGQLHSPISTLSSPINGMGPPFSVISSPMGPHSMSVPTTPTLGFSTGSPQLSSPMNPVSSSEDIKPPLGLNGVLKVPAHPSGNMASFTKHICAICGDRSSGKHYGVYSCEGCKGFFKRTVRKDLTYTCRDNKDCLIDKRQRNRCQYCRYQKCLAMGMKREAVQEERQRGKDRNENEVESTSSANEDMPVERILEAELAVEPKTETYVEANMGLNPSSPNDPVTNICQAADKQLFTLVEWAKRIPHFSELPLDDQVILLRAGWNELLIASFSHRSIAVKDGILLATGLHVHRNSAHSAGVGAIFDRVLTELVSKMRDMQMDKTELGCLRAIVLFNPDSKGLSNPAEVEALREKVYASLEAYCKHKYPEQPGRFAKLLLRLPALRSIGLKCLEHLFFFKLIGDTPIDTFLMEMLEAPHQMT
# Procedure: The PPARγ:RXRα:4ERPP/CHO-K1 cells described in WO03/099793 were cultured in a Ham F12 medium [manufactured by Life Technologies, Inc., US] containing 10% calf fetal serum [manufactured by Life Technologies, Inc., US], sown in a 96-well white plate [manufactured by Corning Coster Corporation, US] at 2×10^4 cells/well, and incubated overnight in a carbon dioxide gas incubator at 37° C.
# Then, the medium was removed from the 96 well white plate, 80 μl of Ham F12 medium containing 0.1% fatty acid-free bovine serum albumin (BSA) and a test compound (20 μl) were added, and the cells were incubated for 18-24 hr in a carbon dioxide gas incubator at 37° C. The medium was removed, 40 μl of PicaGene 7.5 (manufactured by Wako Pure Chemical Industries, Ltd.) diluted 2-fold with HBSS (HANKS' BALANCED SALT SOLUTION) [manufactured by BIO WHITTAKER, US] was added. After stirring, the luciferase activity was determined using the 1420 ARVO Multilabel Counter [manufactured by PerkinElmer, US].
# The induction rate was calculated from the luciferase activity of each test compound based on the luciferase activity of the test compound non-administration group as 1. The test compound concentration and the induction rate were analyzed by PRISM [manufactured by GraphPad Software, Inc., US] to calculate EC50 value (compound concentration showing 50% of the maximum value of induction rate) of the test compound.
# [1] = lowering rate of plasma glucose, read-out: hypoglycemic action (%)
# [2] = lowering rate of plasma triglyceride, read-out: hypolipidemic action (%)
SMILES,EC50 (PPARγ-RXRα heterodimer) [nM],melting point [°C],inhibition in vivo at 0.005 % (KKA^y mice; [1]) [%],inhibition in vivo at 0.005 % (KKA^y mice; [2]) [%]
"COc1cccc(CC(=O)O)c1OCCCc1cc(OC(C)C)nn1Cc1ccccc1Cl [Example 61, (2-{3-[1-(2-chlorobenzyl)-3-isopropoxy-1H-pyrazol-5-yl]propoxy}-3-methoxyphenyl)acetic acid]",25,,51,90
"COc1cccc(CC(=O)O)c1OCCCc1cc(OC(C)C)nn1C(C)c1ccc(Cl)cc1Cl (centres unmarked) [Example 17, [2-(3-{1-[1-(2,4-dichlorophenyl)ethyl]-3-isopropoxy-1H-pyrazol-5-yl}propoxy)-3-methoxyphenyl]acetic acid]",6.2,,57,78
"Cc1cc(C(F)(F)F)ccc1Cn1nc(OC(C)C)cc1CCCOc1nn(Cc2ccccc2)cc1CC(=O)O [Example 78, [1-benzyl-3-(3-{3-isopropoxy-1-[2-methyl-4-(trifluoromethyl)benzyl]-1H-pyrazol-5-yl}propoxy)-1H-pyrazol-4-yl]acetic acid]",1.3,,63,55
"COc1cccc(CC(=O)O)c1OCCCc1cc(OC(C)C)nn1Cc1ccc(F)cc1F [Example 60, (2-{3-[1-(2,4-difluorobenzyl)-3-isopropoxy-1H-pyrazol-5-yl]propoxy}-3-methoxyphenyl)acetic acid]",,,54,76
"CC(C)Oc1ccc(CCCOc2nn(Cc3ccccc3)cc2CC(=O)O)c(Oc2ncc(Cl)cc2Cl)c1 [Example 133, [1-benzyl-3-(3-{2-[(3,5-dichloropyridin-2-yl)oxy]-4-isopropoxyphenyl}propoxy)-1H-pyrazol-4-yl]acetic acid]",1.2,111 to 113,,
"COc1cccc(CC(=O)O)c1OCCCc1cc(OC(C)C)nn1Cc1ccccc1C [Example 21, (2-{3-[3-isopropoxy-1-(2-methylbenzyl)-1H-pyrazol-5-yl]propoxy}-3-methoxyphenyl)acetic acid]",41,,51,78
"CCn1nc(OCCCc2ccc(OCCOC)cc2Oc2ncc(C(F)(F)F)cc2Cl)cc1CCC(=O)O [Example 149, 3-(3-{3-[2-{[3-chloro-5-(trifluoromethyl)pyridin-2-yl]oxy}-4-(2-methoxyethoxy)phenyl]propoxy}-1-ethyl-1H-pyrazol-5-yl)propanoic acid]",5,101 to 103,57,51
"CC(C)Oc1ccc(CCCOc2cc(CCC(=O)O)n(C3CCCCC3)n2)c(Oc2ncc(C(F)(F)F)cc2Cl)c1 [Example 144, 3-{3-[3-(2-{[3-chloro-5-(trifluoromethyl)pyridin-2-yl]oxy}-4-isopropoxyphenyl)propoxy]-1-cyclohexyl-1H-pyrazol-5-yl}propanoic acid]",3.7,114 to 115,,
"CCn1nc(OCCCc2ccc(OCCOC(C)C)cc2Oc2ncc(C(F)(F)F)cc2Cl)cc1CCC(=O)O [Example 150, 3-(3-{3-[2-{[3-chloro-5-(trifluoromethyl)pyridin-2-yl]oxy}-4-(2-isopropoxyethoxy)phenyl]propoxy}-1-ethyl-1H-pyrazol-5-yl)propanoic acid]",2.6,130.5 to 131.5,58,54
"CCS(=O)(=O)CCOc1cc(CCCOc2nn(Cc3ccccc3)cc2CC(=O)O)n(Cc2ccc(Cl)cc2Cl)n1 [Example 98, [1-benzyl-3-(3-{1-(2,4-dichlorobenzyl)-3-[2-(ethylsulfonyl)ethoxy]-1H-pyrazol-5-yl}propoxy)-1H-pyrazol-4-yl]acetic acid]",5.1,100.4 to 101.4,,
"CCCOc1cc(CCCOc2c(CC(=O)O)cccc2OC)n(Cc2ccccc2OC)n1 [Example 83, (2-{3-[1-(2-methoxybenzyl)-3-propoxy-1H-pyrazol-5-yl]propoxy}-3-methoxyphenyl)acetic acid]",18,79 to 82,,

# Second part, led by results:
EC50 (PPARγ-RXRα heterodimer) [nM],melting point [°C],SMILES,inhibition in vivo at 0.005 % (KKA^y mice; [1]) [%],inhibition in vivo at 0.005 % (KKA^y mice; [2]) [%]
14,88 to 90,"CC(C)Oc1cc(CCCOc2ncccc2CC(=O)O)n(Cc2ccc(Cl)cc2Cl)n1 [Example 31, (2-{3-[1-(2,4-dichlorobenzyl)-3-isopropoxy-1H-pyrazol-5-yl]propoxy}pyridin-3-yl)acetic acid]",44,55
1.5,,"CC(C)c1cc(CCCOc2nn(Cc3ccccc3)cc2CC(=O)O)n(Cc2ccc(C(F)(F)F)cc2Cl)n1 [Example 76, [1-benzyl-3-(3-{1-[2-chloro-4-(trifluoromethyl)benzyl]-3-isopropyl-1H-pyrazol-5-yl}propoxy)-1H-pyrazol-4-yl]acetic acid 1/2 calcium salt]",64,57
2.4,89.5 to 91.5,"COCOc1cc(CCCOc2nn(Cc3ccccc3)cc2CC(=O)O)n(Cc2ccc(Cl)cc2Cl)n1 [Example 95, (1-benzyl-3-{3-[1-(2,4-dichlorobenzyl)-3-(methoxymethoxy)-1H-pyrazol-5-yl]propoxy}-1H-pyrazol-4-yl)acetic acid]",65,65
2.5,108 to 110,"CC(C)Oc1cc(CCCOc2nn(Cc3ccccc3)cc2CC(=O)O)n(Cc2ccc(Cl)cc2Cl)n1 [Example 86, (1-benzyl-3-{3-[1-(2,4-dichlorobenzyl)-3-isopropoxy-1H-pyrazol-5-yl]propoxy}-1H-pyrazol-4-yl)acetic acid]",51,51
30,67 to 68,"CC(C)c1cc(CCCOc2nn(C)cc2CC(=O)O)n(Cc2ccc(Cl)cc2Cl)n1 [Example 33, (3-{3-[1-(2,4-dichlorobenzyl)-3-isopropyl-1H-pyrazol-5-yl]propoxy}-1-methyl-1H-pyrazol-4-yl)acetic acid]",,
6.4,111 to 112,"CC(C)c1cc(CCCOc2ncccc2CC(=O)O)n(Cc2ccc(Cl)cc2Cl)n1 [Example 37, (2-{3-[1-(2,4-dichlorobenzyl)-3-isopropyl-1H-pyrazol-5-yl]propoxy}pyridin-3-yl)acetic acid]",,
5.4,114 to 115,"CC(C)c1cc(CCCOc2ncccc2CC(=O)O)n(Cc2ccc(C(F)(F)F)cc2Cl)n1 [Example 77, [2-(3-{1-[2-chloro-4-(trifluoromethyl)benzyl]-3-isopropyl-1H-pyrazol-5-yl}propoxy)pyridin-3-yl]acetic acid]",63,42
